Measured values published in patent publication US8772283B2, “Imidazo-oxazine compound or salt thereof” (Taiho Pharmaceutical Co., Ltd., priority 2011, dated 2014).
Where a name gives a salt, the structure may show the parent alone.

What was measured:
human AKT1 = human AKT1 (Homo sapiens (Human), UniProt P31749); test: AKT1 kinase activity inhibition (TR-FRET, biotinylated Crosstide substrate); type: biochemical; conditions: preincubation 120 min at 25° C.; ATP 150 μM; Crosstide 500 nM
Experimental: (§1) Preparation of AKT1 and AKT2 and measurement of in vitro inhibitory activity of the above-mentioned compounds against AKT1 and AKT2 kinase activity were carried out with reference to the method disclosed in Biochem. J. Vol. 385, pp 399-408 (2005). In the preparation of AKT1 and AKT2, human AKT1 and AKT2 to which a middle T antigen tag was added were expressed in Sf 9 insect cells, and then AKT1 and AKT2 were prepared following affinity purification and activation by PDK1. The prepared AKT1 and AKT2 were stored at −80° C. until the time of measurement of inhibitory activity of the compounds. In the measurement of inhibitory activity of the compounds, AKT1 or AKT2 and each compound of the present invention were preincubated at 25° C. for 120 minutes in a buffer solution for reaction (15 mM Tris-HCl pH 7.5, 0.01% Tween-20, 2 mM DTT). As a substrate, biotinylated Crosstide (bioton-KGSGSGRPRTSSFAEG), MgCl2, and ATP were added to final concentrations of 500 nM, 10 mM, and 150 μM, respectively, and reactions were carried out at 25° C. for 60 minutes. The reactions were stopped by adding EDTA to a final concentration of 80 mM. Then, a detection liquid in which an Eu-labeled anti-phosphorylation Crosstide antibody (PerkinElmer) and SureLight APC-SA (PerkinElmer) were contained at a final concentration of 0.5 nM and […], respectively, was added, and reactions were carried out at room temperature for 2 hours. Finally, the amount of fluorescence at the time of irradiation of excitation light having a wavelength of 337 nm was measured at dual wavelengths of 620 nm and 665 nm by PHERAstar FS (BMG LABTECH). The amount of phosphorylation was determined from the ratio of the fluorescence amounts at the dual wavelengths. The compound concentration at which phosphorylation can be inhibited by 50% was defined as […] (nM), and the results are shown in Table 4 below.

human AKT2 = human AKT2 (Homo sapiens (Human), UniProt P31751); test: AKT2 kinase activity inhibition (TR-FRET, biotinylated Crosstide substrate); type: biochemical; conditions: preincubation 120 min at 25° C.; ATP 150 μM; Crosstide 500 nM
Sequence of human AKT2 (P31751 whole entry): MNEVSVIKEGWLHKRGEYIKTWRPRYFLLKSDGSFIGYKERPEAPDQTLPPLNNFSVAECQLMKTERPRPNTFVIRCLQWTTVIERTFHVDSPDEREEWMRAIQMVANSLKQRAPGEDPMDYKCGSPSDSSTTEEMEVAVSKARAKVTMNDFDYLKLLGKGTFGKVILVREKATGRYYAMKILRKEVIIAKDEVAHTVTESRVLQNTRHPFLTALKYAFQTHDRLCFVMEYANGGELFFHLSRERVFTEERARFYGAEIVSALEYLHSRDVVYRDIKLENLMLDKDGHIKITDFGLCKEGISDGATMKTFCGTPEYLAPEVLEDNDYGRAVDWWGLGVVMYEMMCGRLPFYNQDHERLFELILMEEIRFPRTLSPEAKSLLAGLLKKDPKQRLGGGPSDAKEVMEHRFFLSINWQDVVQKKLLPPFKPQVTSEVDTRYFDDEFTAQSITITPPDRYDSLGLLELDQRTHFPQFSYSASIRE
Experimental: as §1

Sequence of human AKT1 (P31749 whole entry): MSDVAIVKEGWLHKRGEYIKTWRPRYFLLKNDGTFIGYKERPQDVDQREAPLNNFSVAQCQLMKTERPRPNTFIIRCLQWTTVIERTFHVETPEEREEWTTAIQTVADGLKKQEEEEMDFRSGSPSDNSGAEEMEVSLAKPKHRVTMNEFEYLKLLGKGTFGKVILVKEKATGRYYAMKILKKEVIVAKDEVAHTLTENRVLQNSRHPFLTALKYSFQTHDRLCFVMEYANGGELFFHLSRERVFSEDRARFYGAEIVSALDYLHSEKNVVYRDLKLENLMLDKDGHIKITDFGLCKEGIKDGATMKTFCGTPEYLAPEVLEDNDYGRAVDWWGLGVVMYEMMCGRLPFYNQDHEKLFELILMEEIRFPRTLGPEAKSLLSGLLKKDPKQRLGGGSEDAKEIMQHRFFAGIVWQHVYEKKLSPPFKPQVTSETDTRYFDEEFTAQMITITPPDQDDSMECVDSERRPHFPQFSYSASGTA

Molecule	IC50 (human AKT1)	IC50 (human AKT2)
CC1(O)CC(N)(c2ccc(-c3nc4n(c3-c3ccccc3)COc3cc(CO)ccc3-4)cc2)C1 (stereo not drawn) [Example 45, trans-3-amino-3-(4-(8-(hydroxymethyl)-3-phenyl-5H-benzo[e]imidazo[1,2-c][1,3]oxazin-2-yl)phenyl)-1-methylcyclobutanol]	8.6 nM	2.7 nM
CC1(O)CC(N)(c2ccc(-c3nc4n(c3-c3ccccc3)COc3cc(C#N)ccc3-4)cc2)C1 (stereo not drawn) [Example 47, 2-(4-(trans-1-amino-3-hydroxy-3-methylcyclobutyl)phenyl)-3-phenyl-5H-benzo[e]imidazo[1,2-c][1,3]oxazine-8-carbonitrile]	6.2 nM	1.2 nM
CC1(O)CC(N)(c2ccc(-c3nc4n(c3-c3ccccc3)COc3ccc(-c5cn[nH]c5)cc3-4)cc2)C1 (stereo not drawn) [Example 49, trans-3-amino-1-methyl-3-(4-(3-phenyl-9-(1H-pyrazol-4-yl)-5H-benzo[e]imidazo[1,2-c][1,3]oxazin-2-yl)phenyl)cyclobutanol]	1.3 nM	0.42 nM
Cc1ccc2c(n1)-c1nc(-c3ccc(C4(N)CC(C)(O)C4)cc3)c(-c3ccccc3)n1CO2 (stereo not drawn) [Example 50, trans-3-amino-1-methyl-3-(4-(9-methyl-3-phenyl-5H-imidazo[1,2-c]pyrido[2,3-e][1,3]oxazin-2-yl)phenyl)cyclobutanol]	11 nM	0.85 nM
COc1ccc2c(n1)-c1nc(-c3ccc(C4(N)CC(C)(O)C4)cc3)c(-c3ccccc3)n1CO2 (stereo not drawn) [Example 51, trans-3-amino-3-(4-(9-methoxy-3-phenyl-5H-imidazo[1,2-c]pyrido[2,3-e][1,3]oxazin-2-yl)phenyl)-1-methylcyclobutanol]	5.5 nM	1.1 nM
CNC(=O)c1ccc2c(c1)-c1nc(-c3ccc([C@]4(N)C[C@](C)(O)C4)cc3)c(-c3ccccc3)n1CO2 [Example 52, 2-(4-(trans-1-amino-3-hydroxy-3-methylcyclobutyl)phenyl)-N-methyl-3-phenyl-5H-benzo[e]imidazo[1,2-c][1,3]oxazine-9-carboxamide]	1.5 nM	0.28 nM
CC1(O)CC(N)(c2ccc(-c3nc4n(c3-c3ccccc3)COc3ccc(C(N)=O)cc3-4)cc2)C1 (stereo not drawn) [Example 53, 2-(4-(trans-1-amino-3-hydroxy-3-methylcyclobutyl)phenyl)-3-phenyl-5H-benzo[e]imidazo[1,2-c][1,3]oxazine-9-carboxamide]	1.6 nM	0.26 nM

Now from value to molecule:

IC50 (human AKT1)	IC50 (human AKT2)	Molecule
4.4 nM	1.3 nM	CN(C)C(=O)c1ccc2c(c1)-c1nc(-c3ccc(C4(N)CC(C)(O)C4)cc3)c(-c3ccccc3)n1CO2 (stereo not drawn) [Example 54, 2-(4-(trans-1-amino-3-hydroxy-3-methylcyclobutyl)phenyl)-N,N-dimethyl-3-phenyl-5H-benzo[e]imidazo[1,2-c][1,3]oxazine-9-carboxamide]
1.8 nM	0.31 nM	CCNC(=O)c1ccc2c(c1)-c1nc(-c3ccc(C4(N)CC(C)(O)C4)cc3)c(-c3ccccc3)n1CO2 (stereo not drawn) [Example 55, 2-(4-(trans-1-amino-3-hydroxy-3-methylcyclobutyl)phenyl)-N-ethyl-3-phenyl-5H-benzo[e]imidazo[1,2-c][1,3]oxazine-9-carboxamide]
15 nM	3.5 nM	CN(C)C(=O)c1ccc2c(c1)OCn1c-2nc(-c2ccc(C3(N)CC(C)(O)C3)cc2)c1-c1ccccc1 (stereo not drawn) [Example 57, 2-(4-(trans-1-amino-3-hydroxy-3-methylcyclobutyl)phenyl)-N,N-dimethyl-3-phenyl-5H-benzo[e]imidazo[1,2-c][1,3]oxazine-8-carboxamide]
3.1 nM	0.7 nM	CC1(O)CC(N)(c2ccc(-c3nc4n(c3-c3ccccc3)COc3cc(C(=O)NCCO)ccc3-4)cc2)C1 (stereo not drawn) [Example 58, 2-(4-(trans-1-amino-3-hydroxy-3-methylcyclobutyl)phenyl)-N-(2-hydroxyethyl)-3-phenyl-5H-benzo[e]imidazo[1,2-c][1,3]oxazine-8-carboxamide]
2.4 nM	0.57 nM	CC1(O)CC(N)(c2ccc(-c3nc4n(c3-c3ccccc3)COc3ccc(C(=O)NCCO)cc3-4)cc2)C1 (stereo not drawn) [Example 60, 2-(4-(trans-1-amino-3-hydroxy-3-methylcyclobutyl)phenyl)-N-(2-hydroxyethyl)-3-phenyl-5H-benzo[e]imidazo[1,2-c][1,3]oxazine-9-carboxamide]
1.8 nM	0.4 nM	CCONC(=O)c1ccc2c(c1)-c1nc(-c3ccc([C@]4(N)C[C@](C)(O)C4)cc3)c(-c3ccccc3)n1CO2 [Example 61, 2-(4-(trans-1-amino-3-hydroxy-3-methylcyclobutyl)phenyl)-N-ethoxy-3-phenyl-5H-benzo[e]imidazo[1,2-c][1,3]oxazine-9-carboxamide]
1.3 nM	0.4 nM	CC1(O)CC(N)(c2ccc(-c3nc4n(c3-c3ccccc3)COc3cc(C(N)=O)ccc3-4)cc2)C1 (stereo not drawn) [Example 62, 2-(4-(trans-1-amino-3-hydroxy-3-methylcyclobutyl)phenyl)-3-phenyl-5H-benzo[e]imidazo[1,2-c][1,3]oxazine-8-carboxamide]
5 nM	0.91 nM	CC1(O)CC(N)(c2ccc(-c3nc4n(c3-c3ccccc3)COc3ccc(C(=O)O)cc3-4)cc2)C1 (stereo not drawn) [Example 63, 2-(4-(trans-1-amino-3-hydroxy-3-methylcyclobutyl)phenyl)-3-phenyl-5H-benzo[e]imidazo[1,2-c][1,3]oxazine-9-carboxylic acid hydrochloride]
3.1 nM	0.94 nM	CC1(O)CC(N)(c2ccc(-c3nc4n(c3-c3ccccc3)COc3cc(C(=O)O)ccc3-4)cc2)C1 (stereo not drawn) [Example 64, 2-(4-(trans-1-amino-3-hydroxy-3-methylcyclobutyl)phenyl)-3-phenyl-5H-benzo[e]imidazo[1,2-c][1,3]oxazine-8-carboxylic acid hydrochloride]
6.4 nM	4 nM	trans-3-amino-1-methyl-3-(4-(3-phenyl-5H-imidazo[1,2-c]pyrazino[2,3-e][1,3]oxazin-2-yl)phenyl)cyclobutanol [Example 42]
